Measured values published in patent publication US8030498B2, “Benzoylpyrazole compounds and herbicides containing them” (Ishihara Sangyo Kaisha, Ltd., priority 2005, dated 2011).

How the values were obtained:
[1] = tested on: prickly sida (Sida spinosa L.); experiment: Test Example 1: foliar treatment, growth inhibition rate, prickly sida; assay type: in vivo; details: 31 g/ha active ingredient, visually observed 17th to 23rd day after application
Procedure, shortened: (§1)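 Visual scoring of growth inhibition, 0% (untreated) to 100% (complete kill), on days 17–23 following post-emergence spray of formulated compound in water (500 L/ha, 0.1 vol % spreader); plants treated at set leaf stages, e.g. corn 2.0–3.5, wheat 1.7–3.4.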

corn = experiment: Test Example 2: soil application on the day after sowing, growth inhibition rate, corn; assay type: in vivo, Zea mays L.; details: 250 g/ha active ingredient, observed on 19th to 24th day
Procedure, shortened: (§2)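 Upland soil pots sown with crop and weed seeds; next day wettable powder or emulsifiable concentrate at prescribed active-ingredient amounts, diluted to 500 L/ha water, sprayed onto soil. Growth inhibition scored visually 19–24 days later, 0 (as untreated) to 100% (complete kill).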

[2] = tested on: barnyardgrass (Echinochloa crus-galli L.); experiment: Test Example 1: foliar treatment, growth inhibition rate, barnyardgrass; assay type: in vivo; details: 31 g/ha active ingredient, visually observed 17th to 23rd day after application
Procedure, shortened: (§3)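 Post-emergence foliar spray, pot test; WP/EC formulation in water at 500 L/ha, + 0.1 vol % spreader; leaf stage at treatment: corn 2.0–3.5, green foxtail 1.0–3.0, rice 1.0–2.5, wheat 1.7–3.4; visual % inhibition at 17–23 DAT (0 = untreated, 100 = dead).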

wheat (Triticum spp.) = experiment: Test Example 1: foliar treatment, growth inhibition rate, wheat; assay type: in vivo; details: 31 g/ha active ingredient, visually observed 17th to 23rd day after application
Procedure, shortened: (§4)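 Visual growth inhibition rating, 0% (as untreated) to 100% (complete kill), taken 17–23 d after foliar spray. Compound was formulated as wettable powder or EC, diluted to 500 L/ha water with 0.1 vol % agricultural spreader, and applied to pot-grown seedlings of corn (2.0–3.5 leaf), greenfoxtail (1.0–3.0), rice (1.0–2.5) and wheat (1.7–3.4).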

wheat = experiment: Test Example 2: soil application on the day after sowing, growth inhibition rate, wheat; assay type: in vivo, Triticum spp.; details: 250 g/ha active ingredient, observed on 19th to 24th day
Procedure, shortened: as §2

velvetleaf = experiment: Test Example 2: soil application on the day after sowing, growth inhibition rate, velvetleaf; assay type: in vivo, Abutilon theophrasti MEDIC.; details: 250 g/ha active ingredient, observed on 19th to 24th day
Procedure, shortened: as §2

[3] = tested on: redroot pigweed (Amaranthus retroflexus L.); experiment: Test Example 1: foliar treatment, growth inhibition rate, redroot pigweed; assay type: in vivo; details: 31 g/ha active ingredient, visually observed 17th to 23rd day after application
Procedure, shortened: as §1

[4] = tested on: soybean (Glycine max Merr.); experiment: Test Example 1: foliar treatment, growth inhibition rate, soybean; assay type: in vivo; details: 31 g/ha active ingredient, visually observed 17th to 23rd day after application
Procedure, shortened: as §1

rice = experiment: Test Example 2: soil application on the day after sowing, growth inhibition rate, rice; assay type: in vivo, Oryza sativa L.; details: 250 g/ha active ingredient, observed on 19th to 24th day
Procedure, shortened: as §2

[5] = tested on: velvetleaf (Abutilon theophrasti MEDIC.); experiment: Test Example 1: foliar treatment, growth inhibition rate, velvetleaf; assay type: in vivo; details: 31 g/ha active ingredient, visually observed 17th to 23rd day after application
Procedure, shortened: as §3

barnyardgrass = experiment: Test Example 2: soil application on the day after sowing, growth inhibition rate, barnyardgrass; assay type: in vivo, Echinochloa crus-galli L.; details: 250 g/ha active ingredient, observed on 19th to 24th day
Procedure, shortened: as §2

redroot pigweed = experiment: Test Example 2: soil application on the day after sowing, growth inhibition rate, redroot pigweed; assay type: in vivo, Amaranthus retroflexus L.; details: 250 g/ha active ingredient, observed on 19th to 24th day
Procedure, shortened: as §2

greenfoxtail = experiment: Test Example 2: soil application on the day after sowing, growth inhibition rate, greenfoxtail; assay type: in vivo, Setaria viridis L.; details: 250 g/ha active ingredient, observed on 19th to 24th day
Procedure, shortened: as §2

soybean = experiment: Test Example 2: soil application on the day after sowing, growth inhibition rate, soybean; assay type: in vivo, Glycine max Merr.; details: 250 g/ha active ingredient, observed on 19th to 24th day
Procedure, shortened: as §2

[6] = tested on: crabgrass (Digitaria sanguinalis L.); experiment: Test Example 1: foliar treatment, growth inhibition rate, crabgrass; assay type: in vivo; details: 31 g/ha active ingredient, visually observed 17th to 23rd day after application
Procedure, shortened: as §1

prickly sida = experiment: Test Example 2: soil application on the day after sowing, growth inhibition rate, prickly sida; assay type: in vivo, Sida spinosa L.; details: 250 g/ha active ingredient, observed on 19th to 24th day
Procedure, shortened: as §2

rice (Oryza sativa L.) = experiment: Test Example 1: foliar treatment, growth inhibition rate, rice; assay type: in vivo; details: 31 g/ha active ingredient, visually observed 17th to 23rd day after application
Procedure, shortened: as §4

crabgrass = experiment: Test Example 2: soil application on the day after sowing, growth inhibition rate, crabgrass; assay type: in vivo, Digitaria sanguinalis L.; details: 250 g/ha active ingredient, observed on 19th to 24th day
Procedure, shortened: as §2

corn (Zea mays L.) = experiment: Test Example 1: foliar treatment, growth inhibition rate, corn; assay type: in vivo; details: 31 g/ha active ingredient, visually observed 17th to 23rd day after application
Procedure, shortened: as §4

[7] = tested on: greenfoxtail (Setaria viridis L.); experiment: Test Example 1: foliar treatment, growth inhibition rate, greenfoxtail; assay type: in vivo; details: 31 g/ha active ingredient, visually observed 17th to 23rd day after application
Procedure, shortened: as §4

| Compound | Growth inhibition rate (%) Prickly sida [1] [%] | Growth inhibition rate (%) Corn (corn) [%] | Growth inhibition rate (%) Barnyardgrass [2] [%] | Growth inhibition rate (%) Wheat (wheat (Triticum spp.)) [%] | Growth inhibition rate (%) Wheat (wheat) [%] | Growth inhibition rate (%) Velvetleaf (velvetleaf) [%] | Growth inhibition rate (%) redroot pigweed [3] [%] | Growth inhibition rate (%) Soybean [4] [%] | Growth inhibition rate (%) Rice (rice) [%] | Growth inhibition rate (%) Velvetleaf [5] [%] | Growth inhibition rate (%) Barnyardgrass (barnyardgrass) [%] | Growth inhibition rate (%) redroot pigweed (redroot pigweed) [%] | Growth inhibition rate (%) Greenfoxtail (greenfoxtail) [%] | Growth inhibition rate (%) Soybean (soybean) [%] | Growth inhibition rate (%) Crabgrass [6] [%] | Growth inhibition rate (%) Prickly sida (prickly sida) [%] | Growth inhibition rate (%) Rice (rice (Oryza sativa L.)) [%] | Growth inhibition rate (%) Crabgrass (crabgrass) [%] | Growth inhibition rate (%) Corn (corn (Zea mays L.)) [%] | Growth inhibition rate (%) Greenfoxtail [7] [%] |
| --- | --- | --- | --- | --- | --- | --- | --- | --- | --- | --- | --- | --- | --- | --- | --- | --- | --- | --- | --- | --- |
| CCCOc1c(S(C)(=O)=O)ccc(C(=O)c2cnn(CC)c2OC(=O)SCC)c1C [compound 67] | 60 | 0 | 95 | 10 | 0 | 60 | 95 | 90 | 60 | 90 | 60 | 50 | 40 | 20 | 98 | 70 | 60 | 70 | 10 | 100 |
| COC(=O)c1c(S(C)(=O)=O)ccc(C(=O)c2cnn(C)c2OC(=O)SC(C)(C)C)c1C [compound 90] | 75 | 10 | 80 | 0 | 0 | 100 | 80 | 80 | 100 | 95 | 100 | 100 | 100 | 30 | 60 | 98 | 40 | 100 | 0 | 95 |
| CCSC(=O)Oc1c(C(=O)c2ccc(S(C)(=O)=O)c(COCC(F)(F)F)c2Cl)cnn1C [compound 70] | 70 | 0 | 100 | 0 | 0 | 70 | 100 | 80 | 40 | 80 | 70 | 100 | 50 | 0 | 100 | 65 | 70 | 80 | 30 | 100 |
| COCCOc1c(S(C)(=O)=O)ccc(C(=O)c2cnn(C)c2OC(=O)SC(C)C)c1C [compound 207] | 60 | 0 | 95 | 0 | 0 | 100 | 100 | 100 | 98 | 100 | 100 | 100 | 100 | 20 | 95 | 60 | 70 | 100 | 0 | 100 |
| CCCOc1c(S(C)(=O)=O)ccc(C(=O)c2cnn(C)c2OC(=O)SCC)c1C [compound 66] | 75 | 0 | 95 | 10 | 0 | 40 | 95 | 98 | 90 | 95 | 80 | 95 | 40 | 0 | 98 | 90 | 60 | 90 | 0 | 100 |
| CCCSC(=O)Oc1c(C(=O)c2ccc(S(C)(=O)=O)c(C(=O)OC)c2C)cnn1C [compound 84] | 100 | 30 | 98 | 50 | 0 | 98 | 100 | 95 | 98 | 95 | 98 | 100 | 100 | 50 | 98 | 98 | 95 | 100 | 10 | 100 |
| CCn1ncc(C(=O)c2ccc(S(C)(=O)=O)c(C(=O)OC)c2C)c1OC(=O)SC(C)(C)C [compound 91] | 75 | 0 | 95 | 0 | 0 | 70 | 98 | 98 | 80 | 95 | 90 | 100 | 60 | 30 | 98 | 95 | 90 | 95 | 20 | 98 |
| CCC(C)SC(=O)Oc1c(C(=O)c2ccc(S(C)(=O)=O)c(C(=O)OC)c2C)cnn1CC (stereo not drawn) [compound 89] | 60 | 0 | 100 | 20 | 0 | 70 | 90 | 95 | 80 | 100 | 70 | 90 | 80 | 0 | 100 | 50 | 100 | 95 | 20 | 100 |
| CCSC(=O)Oc1c(C(=O)c2ccc(C(F)(F)F)cc2S(C)(=O)=O)cnn1CC [compound 68] | 70 | 0 | 95 | 0 | 0 | 100 | 75 | 70 | 100 | 80 | 100 | 98 | 30 | 40 | 40 | 95 | 60 | 60 | 10 | 60 |
